Assay [1] has as its system HCT116 colon cancer cell line. The assay is described as follows: HCT116 cytotoxicity assay (WST-1, 72 hours). To be noted: Homo sapiens, HCT-116, read-out: IC50 (concentration resulting in a 50% reduction in cell viability), HCT116 cells. In kind it is cell-based. On the procedure:
The compounds of the invention were tested in the following cytotoxicity assay to detect anti-cancer activity. This assay determined viability of various cell lines, when treated with a test compound, by determining the metabolic activity of proliferating cells using the tetrazolium salt WST. While assays conducted with HCT116 colon cancer cell line cells were generally used to compare the relative efficacy of the compounds being tested, OVCAR8 and NCI/ADR-Res cell lines were also used according to the same procedure.
MATERIALS: • A. 10% FBS/L-glutamine/NEAA/HEPES/Na-Pyruvate/RPMI, phenol-free; • B. HCT116, OVCAR8 or NCI/ADR-Res cell lines (new vial thawed every 8-10 weeks); • C. Test compounds, typically 50 mM stocks diluted in DMSO; • D. Clear, flat, TC-surface bottomed 96-well microplates (Corning #3595); • E. WST-1: Dojindo, W201 (powder).
METHODS: • 1. […]
• b) Without removing culture medium, 0.4 μl of a 250× concentrated solution of test compound in growth media was added to HCT116, OVCAR8 or NCI/ADR-Res plates. Plates were returned to incubator and left to incubate for 72 hours. • c) 10 μL of prepared WST-1 was added to treated cells and allowed to incubate at 37° C. for 90 minutes. • d) Absorbances at 490 and 650 nm were read and viability of treated cells relative to DMSO control was determined.
Background: Tetrazolium assays rely on reduction of a dye to a coloured formazan, in cell work by metabolically active cells.

A further assay deals with T1, Aurora A (Homo sapiens, UniProt O14965).
T1 sequence (O14965 1-403): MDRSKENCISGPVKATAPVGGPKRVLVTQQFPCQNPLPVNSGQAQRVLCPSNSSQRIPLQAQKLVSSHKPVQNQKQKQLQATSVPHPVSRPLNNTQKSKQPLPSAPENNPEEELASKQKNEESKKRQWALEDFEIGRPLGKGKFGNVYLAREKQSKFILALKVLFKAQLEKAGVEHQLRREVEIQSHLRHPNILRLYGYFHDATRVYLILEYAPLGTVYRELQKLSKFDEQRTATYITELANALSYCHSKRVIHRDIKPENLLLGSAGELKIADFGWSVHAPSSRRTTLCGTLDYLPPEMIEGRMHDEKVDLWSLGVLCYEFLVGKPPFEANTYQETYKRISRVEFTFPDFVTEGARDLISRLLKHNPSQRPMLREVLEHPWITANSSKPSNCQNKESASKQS
The assay is described as follows: In vitro binding assays.

The target in another assay is JNK (Homo sapiens, UniProt P45983). Nature of the assay: In vitro binding assays.
Chain of JNK (P45983 whole entry): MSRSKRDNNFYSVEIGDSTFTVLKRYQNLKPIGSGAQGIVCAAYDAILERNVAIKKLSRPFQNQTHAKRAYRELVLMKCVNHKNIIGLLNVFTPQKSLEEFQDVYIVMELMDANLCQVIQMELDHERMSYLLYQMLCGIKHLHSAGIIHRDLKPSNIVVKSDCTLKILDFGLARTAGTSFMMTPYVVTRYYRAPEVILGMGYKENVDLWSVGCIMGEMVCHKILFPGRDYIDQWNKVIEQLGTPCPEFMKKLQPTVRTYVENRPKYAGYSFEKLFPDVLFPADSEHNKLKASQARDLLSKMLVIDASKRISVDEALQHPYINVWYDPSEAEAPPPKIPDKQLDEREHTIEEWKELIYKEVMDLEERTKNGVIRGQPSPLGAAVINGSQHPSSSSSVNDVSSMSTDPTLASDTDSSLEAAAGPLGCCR
Another assay concerns the target T2, JAK1 (Homo sapiens, UniProt P23458).
T2 construct: Cellular proteins were prepared by mild sonication in lysis buffer; endogenous in cells
Nature of the assay: In vitro binding assays.

The target of another assay is T3, TTK (Homo sapiens, UniProt P33981).
T3 sequence (P33981 1-857): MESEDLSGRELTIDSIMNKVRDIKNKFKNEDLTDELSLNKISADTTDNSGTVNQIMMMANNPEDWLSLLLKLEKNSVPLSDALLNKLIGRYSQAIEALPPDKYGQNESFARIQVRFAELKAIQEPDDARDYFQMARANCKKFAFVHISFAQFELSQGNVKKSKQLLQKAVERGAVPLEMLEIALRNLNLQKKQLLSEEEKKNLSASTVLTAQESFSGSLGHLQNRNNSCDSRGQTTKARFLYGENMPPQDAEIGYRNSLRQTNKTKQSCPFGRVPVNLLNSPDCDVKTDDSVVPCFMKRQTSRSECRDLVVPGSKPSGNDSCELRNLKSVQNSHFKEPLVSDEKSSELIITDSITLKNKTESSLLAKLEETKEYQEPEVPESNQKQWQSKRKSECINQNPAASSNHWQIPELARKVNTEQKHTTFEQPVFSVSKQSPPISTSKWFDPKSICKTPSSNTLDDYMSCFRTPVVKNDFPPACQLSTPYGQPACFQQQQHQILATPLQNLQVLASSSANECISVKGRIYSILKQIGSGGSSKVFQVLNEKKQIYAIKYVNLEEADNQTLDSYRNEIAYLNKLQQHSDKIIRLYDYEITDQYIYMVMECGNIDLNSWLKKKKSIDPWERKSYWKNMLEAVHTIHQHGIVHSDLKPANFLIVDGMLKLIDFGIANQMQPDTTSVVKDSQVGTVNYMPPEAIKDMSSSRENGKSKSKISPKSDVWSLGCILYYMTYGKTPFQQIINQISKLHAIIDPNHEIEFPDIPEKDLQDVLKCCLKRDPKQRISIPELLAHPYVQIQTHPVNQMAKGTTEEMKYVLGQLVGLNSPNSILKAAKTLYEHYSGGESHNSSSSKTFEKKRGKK
The assay is described as follows: TTK inhibition assay ([γ-33P]ATP transfer to phosphorylated MBP). Particulars: read-out: inhibition of the protein kinase activity of TTK, IC50. In kind it is biochemical. Set-up: A. Recombinant TTK enzyme. On the procedure: The compounds of the invention were also tested in the following assay to determine TTK-inhibitory activity. This assay measures transfer of radioactive phosphate from ATP to a protein substrate in the presence or absence of a test compound.
MATERIALS: • A. Recombinant TTK enzyme; • B. Phosphorylated myelin basic protein (MBP); • C. [γ-^33P]ATP: 1 mCi/100 μL; • D. Positive Control: a proprietary compound known to have […] in this assay.
Final concentrations of reaction mixture components (50 μl total volume): 50 mM Tris-HCl, pH 7.5; 0.01% Triton X-100; 10 mM MgCl2; 25 ng TTK (˜4 nM); 5 μM Phosphorylated MBP; 40 μM ATP (1 μCi/well, adjusted ATP specific activity according to strength of radiolabeled ATP).
Mixes were assembled in the wells of a 96-well polypropylene plate as follows: 1 μL 50× compound to be tested; 39 μL 1.282× Reaction Mix; 10 μL 5×ATP Mix.
The following reaction/assay steps were then performed: • 1. Mix thoroughly and incubate at room temperature for 45 minutes; • 2. Add 70 μL/well, except in background wells, of 3% phosphoric acid to terminate reaction, and transfer 100 μL to P81 filter plate; • 3. Wash with 1% phosphoric acid, then dry the P81 filter plate completely; • 4. Add 100 μL/well MicroSint-20 (PerkinElmer #6013621) and seal; • 5.

pIC50: −log10 of the molar value.

T2 sequence (P23458 whole entry, species assumed): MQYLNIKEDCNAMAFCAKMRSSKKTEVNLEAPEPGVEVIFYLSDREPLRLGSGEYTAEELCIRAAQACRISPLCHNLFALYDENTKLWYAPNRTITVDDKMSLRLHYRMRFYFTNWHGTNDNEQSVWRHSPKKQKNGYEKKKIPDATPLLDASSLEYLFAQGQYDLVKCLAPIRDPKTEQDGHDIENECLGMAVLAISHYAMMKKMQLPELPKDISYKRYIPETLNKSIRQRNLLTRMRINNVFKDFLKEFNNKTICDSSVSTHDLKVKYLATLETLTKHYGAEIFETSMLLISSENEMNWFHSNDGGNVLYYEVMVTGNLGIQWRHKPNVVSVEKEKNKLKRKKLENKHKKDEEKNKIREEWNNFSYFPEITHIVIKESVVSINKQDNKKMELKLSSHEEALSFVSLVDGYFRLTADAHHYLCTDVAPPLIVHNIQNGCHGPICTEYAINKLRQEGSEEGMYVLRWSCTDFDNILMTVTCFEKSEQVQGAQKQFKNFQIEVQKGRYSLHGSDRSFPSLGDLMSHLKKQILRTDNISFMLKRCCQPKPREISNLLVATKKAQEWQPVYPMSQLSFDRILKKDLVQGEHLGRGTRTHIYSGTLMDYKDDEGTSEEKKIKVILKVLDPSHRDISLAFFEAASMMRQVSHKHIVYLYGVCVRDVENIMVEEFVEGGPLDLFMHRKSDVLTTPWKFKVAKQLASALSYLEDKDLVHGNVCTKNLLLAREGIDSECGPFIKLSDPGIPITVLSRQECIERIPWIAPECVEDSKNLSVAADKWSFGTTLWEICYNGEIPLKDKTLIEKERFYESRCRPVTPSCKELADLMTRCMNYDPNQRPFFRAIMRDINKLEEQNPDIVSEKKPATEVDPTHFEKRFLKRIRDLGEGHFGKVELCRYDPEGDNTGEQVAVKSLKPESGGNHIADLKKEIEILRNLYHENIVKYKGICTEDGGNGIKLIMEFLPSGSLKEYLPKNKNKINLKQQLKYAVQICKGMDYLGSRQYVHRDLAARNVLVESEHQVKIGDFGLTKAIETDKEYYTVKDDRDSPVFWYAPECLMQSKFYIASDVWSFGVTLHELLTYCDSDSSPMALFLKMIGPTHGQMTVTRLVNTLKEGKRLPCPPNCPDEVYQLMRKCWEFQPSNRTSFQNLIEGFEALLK

For the compound `NCCCOc1ccc(Nc2nc(NC3CCCCC3)c3nc[nH]c3n2)cc1` [N2-[4-(3-aminopropoxy)phenyl]-N-6-cyclohexyl-9H-purine-2,6-diamine], the pIC50 in assay [1] was 5.92; at Aurora A, 6.38; on JNK, 7.24; at JAK1 it was 6.49; on TTK it was 8.10.

Source of the values: patent publication US20120122840A1, “COMPOUNDS AND THERAPEUTIC USES THEREOF” (Myrexis, Inc., priority 2009, published 2012).
